From patent US20230107216A1, “PANTETHEINE DERIVATIVES AND USES THEREOF” (Comet Therapeutics, Inc., priority 2018, published 2023) come the findings set out here.

Each structure is given as a SMILES string. Like-named read-outs stand apart in the source and are kept apart here.

The test system of assay [1] is Peripheral blood mononuclear cells co-cultured with venular endothelial cells (HUVEC) (LPS system). In words: BioMAP LPS system. The format is cell-based, human. The conditions noted are these: procedure of Example 827.
The test system of assay [2] is Bronchial epithelial cells co-cultured with dermal fibroblast (BF4T system). Briefly: BioMAP BF4T system (TNFα and IL-4). The format is cell-based, human. The settings on record: Homo sapiens, 24 h; 10 uM; procedure of Example 830; read-out: % increase in VCAM-1.
In assay [3] the test system is Leigh Syndrome (LS) primary fibroblasts GM03672. In words: NADP+/NADPH (NADP/NADPH-Glo), Leigh fibroblasts GM03672. The format is cell-based. The settings on record: Homo sapiens, Fibroblast, 24h, read-out: Increase in Total NADP+ + NADPH. On the procedure: Primary adherent fibroblasts were cultured in minimum essential medium (MEM) (Gibco, 25030081) supplemented with 2 mM L-Glutamine (Gibco, 25030081), 15% fetal bovine serum (FBS) (Gibco, 26400044) and 1% penicillin/streptomycin (Gibco, 5140122) at 37° C. and 5% CO2. Cells were collected for either passaging or experiment at ˜70-80% confluence. Cells were obtained by trypsinization and seeded in cell culture microplates either white plate (Thermo Fisher Scientific, 152028) for luminescent measurement or black plate (Thermo Fisher Scientific, 165305) for fluorescent based read out for different assays listed below. Cells were obtained by trypsinization and […] were seeded and allowed to adhere for 16-18 hours to have confluency around 70-80% in the cell well with culture media. After 24 hours prior to measurements (37° C., 5% CO2) media was changed to Dulbecco's Modified Eagle Medium (DMEM, Agilent Seahorse cat #103575-100) with the appropriate supplements as stated below.
Primary fibroblasts assayed were Propionic Acidemia (PA) (GM03590 Coriell Institute for Medical Research, Tsi 6337 Trans-Hit Bio), Methylmalonic Acidemia (MMA) (Tsi 5224 Trans-Hit Bio), Subnormal activation of pyruvate dehydrogenase complex (PDH) (GM01503 Coriell Institute for Medical Research), Very long-chain acyl-CoA dehydrogenase (VLCAD) (GM17475), Leigh Syndrome (LS) (GM03672, GM13411 Coriell Institute for Medical Research), Pyruvate Carboxylase Deficiency (PC) (GM00444 Coriell Institute for Medical Research). 10 μM of Compounds were added for 2 hours in PA, MMA lines and for 24h for the other fibroblast lines.
Assay was performed according to manufacturer instructions (NADP+/NADPH-Glo Assay Promega, G9082). Assay required a plate for total measurement of NADP+/NADPH and a plate for individual measurement of NADP+ or NADPH. For every assay a 12-point standard curve is prepared ranging from 400 nM to 0.625 nM. Media is removed and replaced with 50 μl of PBS for both assays.
For individual NADP+/NADPH measurements, 50 μl of 1% DTAB (Sigma, D5047) (cell lysis reagent) in 0.2N NaOH was added to the plates and 100 μl of lysate was split into two plates with 50 μl each from which ratio of NADP/NADPH can be calculated. 25 μl of 0.4N HCl were added to the NADP+ plates and both NADP+ and NADPH plates were heated at 60° C. for 15 minutes. The acid and heat treatment destroyed NADPH allowing individual NADP+ measurements while heating in basic conditions destroys NADP+ allowing individual NADPH measurement. After 15 minutes plates were allowed to come to room temperature and Trizma base (Sigma, T1699) was added to the NADP+ plates to neutralize the acid and HCl Trizma hydrochloride (Sigma, T2694) was added to the NADPH plates. The NADNADPH glo reagent was prepared by adding 125 μl of NAD cycling substrate, 125 μl of reductase, 125 μl of reductase substrate, 125 μl NAD cycling enzyme to a total of the 25 ml of NAD GLO reagent. 1:1 ratio of total volume of reagent was added to the individual NADP+, NADPH measurements (total 100 μl) and 50 μl were added for the total NAD/NADPH measurements. Luminescence was measured for 30-60 minutes within the linear range.
A total dead cell count was performed as described in Example 817 and only alive cells were used for analysis.

Assay [4] relates to Venular Endothelial cells (HUVEC) (4H system). Briefly: BioMAP 4H system (IL-4 and histamine). The format is cell-based, human. The conditions noted are these: 1 uM, procedure of Example 826.
For assay [5], the system named is Peripheral blood mononuclear cells co-cultured with B-cells (BT system). The settings on record: 1 uM; procedure of Example 829.
Assay [6] concerns Dermal fibroblasts (HDF3CGF system). Briefly: BioMAP HDF3CGF system (IL-1β, TNFα, IFNγ, EGF, bFGF, PDGF-BB). The format is cell-based, human. The conditions noted are these: 10 uM; procedure of Example 833.
Assay [7] relates to Propionic Acidemia (PA) primary fibroblasts GM00371. Briefly: Mitochondrial respiration, XFe96 Extracellular Flux Analyzer (OCR/ECAR), PA fibroblasts GM00371. The conditions noted are these: Homo sapiens, Fibroblast, read-out: Increase in Maximal Respiratory Capacity AUC. The format is cell-based.
In assay [8] the test system is Peripheral blood mononuclear cells co-cultured with B-cells (BT system). Briefly: cells. The settings on record: Homo sapiens, 72 h, read-out: % increase in sIL-6.
In assay [9] the test system is Methylmalonic Acidemia (MMA) primary fibroblasts GM01673. In words: Mitochondrial respiration, XFe96 Extracellular Flux Analyzer (OCR/ECAR), MMA fibroblasts GM01673. The format is cell-based. The conditions noted are these: Homo sapiens, Fibroblast, assay condition A (10 mM glucose, 2 mM L-glutamine, 1 mM pyruvate, 10% FBS), 50 μM, read-out: Increase in Maximal Respiratory Capacity AUC. On the procedure: The effect of the compounds of the present disclosure on mitochondrial respiration was measured with a XFe96 Extracellular Flux Analyzer (Seahorse Bioscience, Agilent Technologies) and Oxygen consumption Rate (OCR) and Extracellular acidification rate (ECAR) determined.
Cell culture and treatments. Primary adherent fibroblasts were cultured in minimum essential medium (MEM) (Gibco, 25030081) supplemented with 2 mM L-Glutamine (Gibco, 25030081), 15% fetal bovine serum (FBS) (Gibco, 26400044) and 1% penicillin/streptomycin (Gibco, 5140122) at 37° C. and 5% CO2. Cells were collected for either passaging or experiment at ˜70-80% confluence. Cells were obtained by trypsinization and seeded at 20000 cells/well in cell culture microplates (Seahorse Bioscience, 101085-004) and allowed to adhere for 16 hours in culture media.
By profiling different primary cells and/or optimizing their culture media or environmental components one can select cell lines and/or conditions that are appropriate for the biological or disease model. In the present example, 24 hours prior to OCR and ECAR profiling, media was changed to Dulbecco's Modified Eagle Medium (DMEM, Agilent Seahorse 103575-100) with the appropriate supplements for the different primary cells (10 mM glucose, 2 mM L-glutamine, 1 mM pyruvate, 10% FBS; 1 mM glucose, 2 mM L-glutamine, 1 mM pyruvate, 10% FBS; 10 mM glucose, 10% FBS; 5 mM glucose 10% FBS; 1 mM glucose 10% FBS). Cells used in this example were: Propionic Acidemia (PA) (GM00371, GM03590 Coriell Institute for Medical Research, Tsi 6337, Tsi 4626, Tsi 3618 Trans-Hit Bio), Methylmalonic Acidemia (MMA) (GM01673, Coriell Institute for Medical Research, Tsi 5224 Trans-Hit Bio), Branched chain ketoacid dehydrogenase kinase (BCKDK) (GM00612, GM00649 Coriell Institute for Medical Research), Subnormal activation of pyruvate dehydrogenase complex (PDH) (GM01503 Coriell Institute for Medical Research), Very long-chain acyl-CoA dehydrogenase (VLCAD) (GM17475), Leigh Syndrome (LS) (GM03672, GM13411 Coriell Institute for Medical Research), Pyruvate Carboxylase Deficiency (PC) (GM00444 Coriell Institute for Medical Research), Glutaric Acidemia-I (GA) (GM10653), Friedreich's Ataxia (FXN) (GM04078 Coriell Institute for Medical Research, Huntington's disease (HD) (GM21756 Coriell Institute for Medical Research), Ornithine Transcarbamylase Deficiency (OTC) (GM12756 Coriell Institute for Medical Research), Kearns-Sayre Syndrome (KSS) (GM06225 Coriell Institute for Medical Research).
One hour before the assay, the cells were washed with freshly prepared unbuffered serum free-Seahorse XF Assay medium (Seahorse Bioscience, North America, USA, 103575-100) with the same supplements as for the previous 24 hour incubation.
After baseline measurements of OCR, cells were challenged with compounds of the present disclosure at different concentrations (10 to 50 μM) or vehicle (DMSO, 0.1%) and a post-compound baseline was recorded. OCR was measured after sequentially adding to each well 1 μg/ml oligomycin (inhibitor of ATP synthase Sigma-Aldrich, 753531), then maximal OCR was determined with carbonyl cyanide 4-(trifluoromethoxy) phenylhydrazone (FCCP, Sigma-Aldrich, C2920), (uncoupler of oxidative phosphorylation) and 0.5 μM of rotenone (Sigma-Aldrich, R8875) plus antimycin A (Sigma-Aldrich, A8674) (inhibitors of mitochondrial complex I and III) for determination of rotenone-antimycin insensitive respiration together with Hoechst for nuclear staining in situ when normalized to cell counts. After the analysis and nuclear staining, the XFp microplate was transferred to the Cytation 5, and the nuclear images were captured, the individual nuclei were identified and counted by BioTek Gen5 software. Data were expressed as pmol of O2 per minute and normalized by nuclear staining and baselined to pre-compound addition.
Assay conditions were as stated below.
Assay specifics on assay conditions are indicated below when readouts were normalized to cell counts. […]

Assay [10] relates to primary fibroblasts GM00649, GM06225, GM00612, GM00444, GM03672. In words: MMP, ROS and ATP multiplex (ArrayScan). The format is cell-based. The settings on record: Homo sapiens, Fibroblast; Leigh GM03672; procedure Example 838; 50 μM (table line r25); read-out: Decreased ROS by at least 10%. As for the experimental part: Cell culture and treatments. Primary adherent fibroblasts were cultured in minimum essential medium (MEM) (Gibco, 25030081) supplemented with 2 mM L-Glutamine (Gibco, 25030081), 15% fetal bovine serum (FBS) (Gibco, 26400044) and 1% penicillin/streptomycin (Gibco, 5140122) at 37° C. and 5% CO2. Cells were collected for either passaging or experiment at ˜70-80% confluence. Cells were obtained by trypsinization and seeded at 10000 cells/well in cell culture microplates (Seahorse Bioscience, 101085-004) and allowed to adhere for 16 hours in culture media. After media was refreshed with DMEM (Agilent Seahorse 103575-100) supplemented with 1 mM glucose and 10% FBS (Gibco, 26400044). At the end of the incubation period, the cells were loaded with the relevant dye/antibody for each cell health marker. The assay provided simultaneous measurement of cell health parameters including cell count, ROS formation (DHE), mitochondrial membrane potential (MitoTracker®) and cellular ATP content (CellTiter-Glo®, Promega). The plates were then scanned using an automated fluorescent cellular imager, ArrayScan® (Thermo Scientific Cellomics). Assay conditions were optimized by one skilled in the art.
Primary cells used in this example were obtained from Coriell Institute for Medical Research and consisted of GM00649, MSUD (Maple Syrup Urine Disease) Tyle IA; GM06225, Kearns-Sayre Syndrome; GM00612, MSUD (Maple Syrup Urine Disease) Tyle II GM00444, Pyruvate Carboxylase Deficiency and GM03672, Leigh Syndrome.

Assay [11] relates to primary fibroblasts (healthy controls and PA, MMA, BCKDK, PDH, VLCAD, LS, PC, GA, VLCFA, KSS, FXN, HD). In words: Measurement of ROS (H2DCFDA) in primary fibroblasts. The format is cell-based, human. The settings on record: Homo sapiens, Fibroblast; HD GM21756; procedure Example 812; Assay Condition C; read-out: Decreased ROS by at least 30%. An outline of the steps:
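Patient and healthy-control primary fibroblasts switched to supplemented DMEM 24 h before assay, then treated with compound (10 μM) plus H2DCFDA (22 μM) for 2 h (PA, MMA lines) or 24 h (other lines). Kinetic fluorescence at 492/527 nm over 60 min; only live cells analysed.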

Take `CC(C)(CO)[C@@H](O)C(=O)NCCC(=O)NCCSC(CC(=O)O)C(=O)O` (stereo partly drawn) [Compound 46, 2-[(2-[3-[(2R)-2,4-dihydroxy-3,3-dimethylbutanamido]propanamido]ethyl)sulfanyl]butanedioic acid]: the “% increase in sPGE2” value in [1] (1 uM) was no less than 10%. Further, the activation at 10 µM in [1] (Homo sapiens, HUVEC, 24 h, 10 uM, read-out: % increase in sTNFα) is no less than 10%; in assay [2], no less than 10%; in assay [3] (Leigh GM03672 P8, assay condition B (1 mM glucose, 2 mM L-glutamine, 1 mM pyruvate, 10% FBS)) it was no less than 10%; in assay [8] it was no less than 10%. For the same molecule, the “% increase in E-Selectin” value in [4] is given as no less than 10%. The inhibition at 1 µM in [4] (Homo sapiens, HUVEC, 24 h, read-out: % decrease in E-Selectin) was no less than 10%. Further, in assay [5], the “% decrease in B-cell proliferation” value is no less than 20%. For the same molecule, the “% decrease in sIL-2” value in assay [5] was no less than 20%. Besides, the “% decrease in sTNFα” value in assay [5] is no less than 20%. Besides, the “% decrease in Collagen I” value in assay [6] was no less than 10%. Besides, in assay [7] (assay condition C (10 mM glucose, 10% FBS), 50 μM), the activation at 50 µM is no less than 10%.

Consider `CCOC(=O)C(=O)SCCNC(=O)CCNC(=O)[C@H](O)C(C)(C)COP(=O)(O)O` [Compound 61], for which, in assay [9], the activation at 50 µM was no less than 10%. Further, in assay [10], the inhibition at 50 µM is no less than 10%.

Take `CCC(=O)SCCNC(=O)CCNC(=O)[C@H](O)C(C)(C)CO` [Compound 398, (2R)-2,4-dihydroxy-3,3-dimethyl-N-(2-[[2-(propanoylsulfanyl)ethyl]carbamoyl]ethyl)butanamide]: in assay [11], the inhibition at 10 µM was no less than 30%. Besides, the activation at 10 µM in assay [3] (Leigh GM03672 P9, assay condition A (10 mM glucose, 2 mM L-glutamine, 1 mM pyruvate, 10% FBS)) is no less than 10%; in [7] (assay condition D (1 mM glucose, 10% FBS), 10 μM), no less than 10%.
